Where two headings read alike, the source gives them in different places.
How the values were obtained:
[1] = test system: duckweed (Lemna paucicostata); test: Dose-response bioassay with duckweed; format: in vivo; conditions: frond area increase between days 1 and 7, read-out: IC50 (μM) ± SE, duckweed growth inhibition
Description: Phytotoxic activity of compounds of formula III and IV above as evaluated on duckweed. Duckweed stocks were grown from a single colony consisting of a mother and two daughter fronds in a beaker on modified Hoagland media (Table 3 below). The medium was adjusted to pH 5.5 with 1 M NaOH and filtered through a 0.2 μm filter. Each well of non-pyrogenic polystyrene sterile 6-well plates was filled with 4.950 ml of Hoagland media and, 50 μl of distilled water, 50 μl of acetone in solvent control or 50 μl of acetone containing the appropriate concentration of test compound. The final concentration of acetone was 1% v/v. Two, three-frond colonies from 4 to 5 d-old stock cultures were placed in each well. Plates were placed in an incubator with white light (94.2 μE m^−2 s^−1). Total frond area per well was recorded by the Scanalyzer (LemnaTec, Germany) image analysis system from days 0 to 7. Percentage of increase between days 1 and 7 was determined relative to baseline area at day zero.
Percentage of increase between days 1 and 7 was determined relative to baseline area at day zero. Data represents means of three replicates±SD.
Statistical Analysis. Data from dose-response experiments were analyzed by a log-logistic model^37-38 using the dose-response curve module^39 of R software version 2.2.1.^40 Concentrations required for 50% germination or growth inhibition relative to control (IC50 values) were obtained from estimated parameters in the regression curves. The standard error (SE) of each estimation is provided. Data from phytotoxicity bioassays in the laboratory and greenhouse, ROS and cell death quantifications were analyzed by ANOVA using the InfoStat statistical software version 2015,^41 and Scheffe's test was employed to compare the means at α=0.05.

[2] = test system: creeping bentgrass (A. stolonifera); test: Germination bioassay with creeping bentgrass; format: in vivo, Agrostis stolonifera; design: key to Phytotoxicity at day 7, Creeping bentgrass: 0 = no effect; 5 = no growth or germination; conditions: for Phytotoxicity at day 7, Creeping bentgrass: 1 mM, 24-well plates, rating scale of 0 to 5; for inhibition at 1000 µg/mL: Agrostis stolonifera, 168 h, creeping bentgrass, 1 mg/mL, day 7; for creeping bentgrass germination: fractions at 1 mg/mL
Description: DCM extract of flowers of A. visnaga (1.6 g) was divided in two 800 mg halves and each one was subjected to column chromatography using an Isolera One system (Biotage), equipped with UV detector (302 and 365 nm) and automatic fraction collector. Separation was performed by normal-phase chromatography column using a SNAP Cartridge KP-Sil (37×157 mm, 50 μm irregular silica, 100 g, Biotage) and a pre-packaged SNAP Samplet Cartridge KP-Sil (37×17 mm, Biotage). A full gradient of hexane:ethyl acetate was used for elution, from 100:0 to 0:100 over 3000 ml. Flow was 40 ml/min and 25 ml fractions were collected. Equal fractions were combined based on similarities on their TLC and chromatogram profiles providing nineteen fractions named I to XIX. All fractions were evaluated for their phytotoxicity on germination bioassay of lettuce (L. sativa) and creeping bentgrass (A. stolonifera).
A filter paper and 5 lettuce or 10 mg of creeping bentgrass seeds were placed in each well of a 24-well plate. Stock solutions (10×) of test compounds were prepared in acetone. 180 μl of distilled water were added to each well together with 20 μl of stock solution or acetone in solvent control. Final concentration of acetone was 10% v/v. Plates were sealed with Parafilm, and incubated at 26° C. in a growth chamber set at 173 μmol m^−2 s^−1 continuous photosynthetically active radiation. Phytotoxic activity was qualitatively evaluated by visually comparing germination in each well with solvent control at 7 days. A qualitative estimation of phytotoxicity was obtained by using a rating scale of 0 to 5, where 0 was no effect, and 5 was no germination of seeds. This procedure was also used for testing the phytotoxicity of pure compounds on ryegrass. On this experiment 12-well plates were used. 10 seeds were placed per well and final volume was 300 μl in each one. During dose-response bioassays used for IC50 determination, germination percentage and length of plants were measured at 7 days in order to determine the concentration required for 50% germination and growth inhibition (IC50). All experiments were done in triplicate.

onion root tips = test: Cell death determination by Evans blue staining, root tips; format: cell-based, Allium cepa; conditions: 4 days; for increase in relative cell death: 100 μM; for increase in relative cell death compared to 100 μM: 300 μM
Description: (§1) To evaluate cell death in roots, onion seeds were germinated and treated as described in postemergence assay with weed species. Onion seedlings were exposed to different doses of compounds of formulas III and IV (0, 100 and 300 μM) during 4 days. For the experiment with leaf disks 3-weeks-cucumber plants were used. One disk (1 cm) was placed in each well of a 12-well plate together with 1 mL of a 2% w/v sucrose/1 mM MES, pH 6.5 solution containing each of the compounds tested at the appropriate concentration (0, 100 or 300 μM) and acetone (1% v/v). Each assay was performed with leaf disks from different plants. Plates were sealed with Parafilm and incubated in a growth chamber at 21-27° C. with a 16/8 h light/dark cycle for 7 days.
(§2) Cell death was determined by Evans blue staining.^26 Root tips (5-mm sections) and leaf disks were incubated for 30 min in 0.25% w/v Evans blue aqueous solution at 25° C. on a rotary shaker. After staining, unbound dye was removed by extensive washing with deionized water. Three root tips (3 replicates) or one leaf disk (4 replicates) were ground in a tissue grind tube with 500 μL 1% w/v sodium dodecyl sulfate (SDS). The resulting suspension was centrifuged for 20 min at 20,000 g and the supernatant was used for dye quantification by monitoring the absorbance at 600 and 680 nm. Relative cell death was expressed as A600 for root tips and A600/A680 ratios for leaf disks.

cucumber leaf disks = test: Cell death determination by Evans blue staining, leaf disks; format: cell-based; conditions: 7 days; for increase in relative cell death with respect to the control: 100 μM; for increase in relative cell death: 300 μM
Description: as §1, §2

cucumber cotyledon disks = test: Photosynthetic efficiency (chlorophyll fluorescence, ETR); format: cell-based; conditions: after 24 h of incubation in the light (42 h total)
Description: The effects of pure compounds of formulas III and IV were evaluated by chlorophyll fluorescence measurements according to Dayan and Zaccaro.^24 Cucumber cotyledon disks were exposed to different dilutions of each furanochromone (10, 30, 100 and 300 μM). Control tissues were exposed to the same solvent as treated tissues but without the test compounds. The cotyledon disks were incubated in darkness for 18 h before exposure to light for 24 h. Photosynthetic quantum yield and electron transport rate (ETR) were measured. ETR values were expressed as percent of the ETR average values observed in control treatments. A time-course experiment was performed by measuring induced fluorescence of cotyledon disks after treatment at 3 h in darkness (start), after 18 h in darkness, after which the samples were placed in the light, and further measurements were made after 6 and 24 h of light exposure. The results of this experiment are shown in FIG. 16 (A: khellin [compound of formula III] and B: visnagin [compound of formula IV]). Three replicates were performed for each experiment. Bars represent, from left to right in each grouping, start, 18 h dark, 6 h light, and 24 h light.

| SMILES | IC50 ([1]; Lemna aequinoctialis) | IC50 [1] | Phytotoxicity at day 7, Creeping bentgrass [2] | inhibition at 1000 µg/mL [2] | creeping bentgrass germination [2] | increase in relative cell death (onion root tips) | increase in relative cell death compared to 100 μM (onion root tips) | increase in relative cell death with respect to the control (cucumber leaf disks) | increase in relative cell death (cucumber leaf disks) | reduction of electron transport rate (ETR) (cucumber cotyledon disks; 100 μM) | reduction of electron transport rate (ETR) (cucumber cotyledon disks; 300 μM) |
| --- | --- | --- | --- | --- | --- | --- | --- | --- | --- | --- | --- |
| COc1c2ccoc2cc2oc(C)cc(=O)c12 [Formula IV, 4-methoxy-7-methyl-5H-furo[3,2-g]chromen-5-one] | 120 µM | 122 ± 28 µM | 5 | 100% | completely inhibited | two-fold | two-fold | ~35% | 3.5 fold | ~35% | ~50% |
| COc1c2occc2c(OC)c2c(=O)cc(C)oc12 [Formula III, 4,9-dimethoxy-7-methyl-5H-furo[3,2-g]chromen-5-one] | 160 µM | 162 ± 29 µM | 5 | 100% | completely inhibited | two-fold | two-fold | ~35% | 3.5 fold | ~35% | ~50% |

From US11083197B2, “Herbicidal composition comprising chromone derivatives and a method for weed control” (INVESTIGACIONES BIOLÓGICAS EN AGROQUÍMICOS ROSARIO S.A., priority 2015, dated 2021)
